Results as given in patent EP0126944B1, “Use of 6-(Z) or 2-(Z) configurational 3,7,11-trimethyl-dodeca-2,6,10-trien-1-ols as bacteriostats in cosmetic products” (Dragoco Gerberding & Co. GmbH, priority 1983, dated 1984).

How the values were obtained:
Test in all cases: Vertical diffusion test (impregnated filter paper embedded in agar)
Format in all cases: cell-based
Corynebacterium species = details: 0,3 %; for Vertikaler Diffusionstest, Corynebacteriumt species 10^4 / Vertikaler Diffusionstest, Corynebacteriumt species 10^6 KBE/ml: 0,2 ml/ 15,9 cm^2; for Vertikaler Diffusionstest, Corynebacteriumt species 10^4: 10^4 KBE/ml; for antibakterielle Wirkung: Tabelle 1, Corynebacterium species
From the text: (§1) Die mikrobiologischen Prüfungen wurden mit den Bakterienarten Staphylococcus aureus, Corynebacterium species und Staphylococcus epidermidis durchgeführt. Es wurden jeweils Konzentrationen von 0,3 % der Verbindungen 1a, b, c, 2 gegen unterschiedliche Keimzahlen eingesetzt und 1. mit einer Aufschwemmung von 10^4 koloniebildenden Einheiten/ml (KBE/ml) und 2. mit 10^6 KBE/ml versehen. Die Durchführung der Untersuchung erfolgte in üblicher Weise, indem Filterpapierplättchen mit einer Fläche von 15,9 cm^2 mit je 0,2 ml der 0,3 % igen alkoholischen Konzentrationen beschickt wurden. Nach Trocknen der aufgebrachten Lösungen wurden die Filterpapierplättchen dann in den Agar von Petrischalen eingebettet, so daß die Oberfläche mit einer dünnen Agarschicht überschichtet werden konnte. Danach wurde die ganze Platte mit den Testbakterien in unterschiedlicher Keimkonzentration beimpft. (Tabelle 1)

[1] = system: Staphylococcus aureus SG 511; details: for Vertikaler Diffusionstest, Staphylococcus aureus SG 511 10^4 / Vertikaler Diffusionstest, Staphylococcus aureus SG 511 10^6 KBE/ml / antibakterielle Wirkung: 0,3 %; for Vertikaler Diffusionstest, Staphylococcus aureus SG 511 10^4 / Vertikaler Diffusionstest, Staphylococcus aureus SG 511 10^6 KBE/ml: 0,2 ml/ 15,9 cm^2; for Vertikaler Diffusionstest, Staphylococcus aureus SG 511 10^4: 10^4 KBE/ml; for antibakterielle Wirkung: Tabelle 1
From the text: as §1

[2] = system: Staphylococcus epidermidis; details: for Vertikaler Diffusionstest, Staphylococcus epidermidis 10^4 / Vertikaler Diffusionstest, Staphylococcus epidermidis 10^6 KBE/ml / Hemmung / antibakterielle Wirkung: 0,3 %; for Vertikaler Diffusionstest, Staphylococcus epidermidis 10^4 / Vertikaler Diffusionstest, Staphylococcus epidermidis 10^6 KBE/ml: 0,2 ml/ 15,9 cm^2; for Vertikaler Diffusionstest, Staphylococcus epidermidis 10^4: 10^4 KBE/ml; for Hemmung / antibakterielle Wirkung: Tabelle 1
From the text: as §1

In the case of `CC(C)=CCC/C(C)=C/CC/C(C)=C\CO` [Substanz 1a], the “Vertikaler Diffusionstest, Corynebacteriumt species 10^4” value (Corynebacterium species) is reported as 0, the “Vertikaler Diffusionstest, Corynebacteriumt species 10^6 KBE/ml” value (Corynebacterium species) is reported as 0 and the “antibakterielle Wirkung” value (Corynebacterium species) is reported as “deutliche antibakterielle Wirkung”. The “Vertikaler Diffusionstest, Staphylococcus aureus SG 511 10^4” value [1] was 0, the “Vertikaler Diffusionstest, Staphylococcus aureus SG 511 10^6 KBE/ml” value [1] was 0 and the “antibakterielle Wirkung” value ([1]; Staphylococcus aureus) was “deutliche antibakterielle Wirkung”. For the same compound, the “Vertikaler Diffusionstest, Staphylococcus epidermidis 10^4” value [2] was 0 - 1, the “Vertikaler Diffusionstest, Staphylococcus epidermidis 10^6 KBE/ml” value [2] was 0 - 1 and the Hemmung ([2]; Staphylococcus epidermidis) was “fast totale Hemmung”. For the same compound, the “antibakterielle Wirkung” value ([2]; Staphylococcus epidermidis) was “deutliche antibakterielle Wirkung”.
With `CC(C)=CCC/C(C)=C\CC/C(C)=C/CO` [Substanz 1b] the “Vertikaler Diffusionstest, Corynebacteriumt species 10^4” value (Corynebacterium species) was 0, the “Vertikaler Diffusionstest, Corynebacteriumt species 10^6 KBE/ml” value (Corynebacterium species) was 0 and the “antibakterielle Wirkung” value (Corynebacterium species) was “deutliche antibakterielle Wirkung”. For the same compound, the “Vertikaler Diffusionstest, Staphylococcus aureus SG 511 10^4” value [1] was 0, the “Vertikaler Diffusionstest, Staphylococcus aureus SG 511 10^6 KBE/ml” value [1] was 0 and the “antibakterielle Wirkung” value ([1]; Staphylococcus aureus) was “deutliche antibakterielle Wirkung”. The “Vertikaler Diffusionstest, Staphylococcus epidermidis 10^4” value [2] was 0, the “Vertikaler Diffusionstest, Staphylococcus epidermidis 10^6 KBE/ml” value [2] was 0 - 1 and the Hemmung ([2]; Staphylococcus epidermidis) was “fast totale Hemmung”. The “antibakterielle Wirkung” value ([2]; Staphylococcus epidermidis) was “deutliche antibakterielle Wirkung”.
In the case of `CC(C)=CCC/C(C)=C\CC/C(C)=C\CO` [Substanz 1c], the “Vertikaler Diffusionstest, Corynebacteriumt species 10^4” value (Corynebacterium species) is reported as 0, the “Vertikaler Diffusionstest, Corynebacteriumt species 10^6 KBE/ml” value (Corynebacterium species) is reported as 0 and the “antibakterielle Wirkung” value (Corynebacterium species) is reported as “deutliche antibakterielle Wirkung”. For the same compound, the “Vertikaler Diffusionstest, Staphylococcus aureus SG 511 10^4” value [1] was 0, the “Vertikaler Diffusionstest, Staphylococcus aureus SG 511 10^6 KBE/ml” value [1] was 0 and the “antibakterielle Wirkung” value ([1]; Staphylococcus aureus) was “deutliche antibakterielle Wirkung”. For the same compound, the “Vertikaler Diffusionstest, Staphylococcus epidermidis 10^4” value [2] was 0, the “Vertikaler Diffusionstest, Staphylococcus epidermidis 10^6 KBE/ml” value [2] was 0 - 1 and the Hemmung ([2]; Staphylococcus epidermidis) was “fast totale Hemmung”. For the same compound, the “antibakterielle Wirkung” value ([2]; Staphylococcus epidermidis) was “deutliche antibakterielle Wirkung”.
For `CC(C)=CCCC(C)=CCCC(C)=CCO` [Substanz 2, Farnesol, reference compound], the “Vertikaler Diffusionstest, Corynebacteriumt species 10^4” value (Corynebacterium species) was 0, the “Vertikaler Diffusionstest, Corynebacteriumt species 10^6 KBE/ml” value (Corynebacterium species) was 0 and the “Vertikaler Diffusionstest, Staphylococcus aureus SG 511 10^4” value [1] was 0 - 1. The “Vertikaler Diffusionstest, Staphylococcus aureus SG 511 10^6 KBE/ml” value [1] was 0 - 1, the Wirksamkeit ([1]; compared with 1a, b, c, Staphylococcus aureus) was “etwas geringerer Wirksamkeit” and the “Vertikaler Diffusionstest, Staphylococcus epidermidis 10^4” value [2] was 1 - 2. For the same compound, the “Vertikaler Diffusionstest, Staphylococcus epidermidis 10^6 KBE/ml” value [2] was 1 - 2 and the Wirksamkeit ([2]; compared with 1a, b, c, Staphylococcus epidermidis) was “etwas geringerer Wirksamkeit”.
